Results: BindingDB's records for doi:10.7270/Q2PN942B (Vanderbilt Screening Center for GPCRs, Ion Channels and …, 2009)

The molecules below were run against T1, Solute carrier family 12 member 5 (Homo sapiens, UniProt Q9H2X9) (assay: KCC2 cotransport modulators, dose response, cell-based, assay 2 (AID 1723)). Conditions: not given.
T1 sequence (Q9H2X9 whole entry): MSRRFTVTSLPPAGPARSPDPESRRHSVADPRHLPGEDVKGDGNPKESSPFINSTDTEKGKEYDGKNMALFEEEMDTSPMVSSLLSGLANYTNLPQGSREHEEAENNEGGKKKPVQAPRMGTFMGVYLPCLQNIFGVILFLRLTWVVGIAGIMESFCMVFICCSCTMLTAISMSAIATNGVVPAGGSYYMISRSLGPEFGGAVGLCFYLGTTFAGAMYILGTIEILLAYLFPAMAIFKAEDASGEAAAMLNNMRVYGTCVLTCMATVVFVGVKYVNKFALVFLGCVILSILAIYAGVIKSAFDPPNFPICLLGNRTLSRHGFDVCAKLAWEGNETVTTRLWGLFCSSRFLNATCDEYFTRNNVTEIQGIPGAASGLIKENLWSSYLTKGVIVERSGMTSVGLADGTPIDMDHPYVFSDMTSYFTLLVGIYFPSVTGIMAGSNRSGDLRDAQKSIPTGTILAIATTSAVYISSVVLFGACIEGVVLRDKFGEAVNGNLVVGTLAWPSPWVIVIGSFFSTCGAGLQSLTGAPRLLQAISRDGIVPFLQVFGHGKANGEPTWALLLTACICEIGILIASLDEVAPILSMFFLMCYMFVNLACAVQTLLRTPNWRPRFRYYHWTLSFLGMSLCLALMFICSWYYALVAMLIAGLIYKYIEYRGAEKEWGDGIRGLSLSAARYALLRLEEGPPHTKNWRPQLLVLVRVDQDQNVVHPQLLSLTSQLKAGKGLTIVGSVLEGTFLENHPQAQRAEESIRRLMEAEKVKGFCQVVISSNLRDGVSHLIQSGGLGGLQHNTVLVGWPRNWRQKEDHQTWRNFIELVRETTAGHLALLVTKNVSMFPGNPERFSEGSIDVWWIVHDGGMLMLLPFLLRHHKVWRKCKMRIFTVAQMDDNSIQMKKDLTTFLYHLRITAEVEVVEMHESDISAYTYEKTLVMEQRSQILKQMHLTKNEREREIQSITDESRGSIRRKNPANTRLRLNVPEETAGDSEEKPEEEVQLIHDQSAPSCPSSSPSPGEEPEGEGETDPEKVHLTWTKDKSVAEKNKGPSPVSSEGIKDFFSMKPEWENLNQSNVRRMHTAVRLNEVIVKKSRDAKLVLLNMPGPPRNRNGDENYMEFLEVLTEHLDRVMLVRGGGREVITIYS

EC50 [µM] | Structure (SMILES)
12.9 | Cc1[nH]n2c(=O)cc(C(C)C)nc2c1-c1ccccc1
0.548 | O=[N+]([O-])c1ccc(-c2cn(-c3ccccc3F)c(=S)[nH]2)cc1
8.12 | S=c1nc(-c2ccc3c(c2)CCO3)cc[nH]1
11.2 | S=C(NCCc1ccccc1)NN=Cc1cccc(Cl)c1Cl [1-[(2,3-dichlorobenzylidene)amino]-3-phenethyl-thiourea]
14 | Fc1cccc(F)c1C=NNC(=S)Nc1cccnc1 [1-[(2,6-difluorobenzylidene)amino]-3-(3-pyridyl)thiourea]
2.29 | NC(=S)NN=C1C(=O)N(Cc2ccc(F)cc2)c2ccccc21 [1-[(Z)-[1-[(4-fluorophenyl)methyl]-2-oxidanylidene-indol-3-ylidene]amino]thiourea]
2.57 | N=C1SCC(=O)N1c1ncc(Cc2cccc(Cl)c2)s1 [2-azanylidene-3-[5-[(3-chlorophenyl)methyl]-1,3-thiazol-2-yl]-1,3-thiazolidin-4-one]
244 | O=C(NC(=S)Nc1nc(-c2cccc([N+](=O)[O-])c2)cs1)c1ccccc1Cl [2-chloranyl-N-[[4-(3-nitrophenyl)-1,3-thiazol-2-yl]carbamothioyl]benzamide]
14.2 | CCOc1ccc2nc(Sc3cc(O)n(-c4cccc(OC)c4)c3O)sc2c1 [3-(6-Ethoxy-benzothiazol-2-ylsulfanyl)-1-(3-methoxy-phenyl)-pyrrolidine-2,5-dione]
1.74 | COC(=O)c1sccc1NC(=S)OC [3-(methoxycarbothioylamino)thiophene-2-carboxylic acid methyl ester]
0.996 | COC(=O)[C@@H](NC(=O)O[C@@H]1C(=O)c2ccc(OC)cc2O[C@H]1c1cccc(C(F)(F)F)c1)C(C)C [(2S)-2-[[(2S,3S)-4-keto-7-methoxy-2-[3-(trifluoromethyl)phenyl]chroman-3-yl]oxycarbonylamino]-3-methyl-butyric acid methyl ester]
5.86 | CCOc1[nH]n(-c2ccccc2)c(=O)c1C=Nc1ccc(F)cc1F [(4E)-4-[[[2,4-bis(fluoranyl)phenyl]amino]methylidene]-5-ethoxy-2-phenyl-pyrazol-3-one]
45.3 | Oc1ccccc1CN=Nc1nc2ccccc2o1 [(6E)-6-[(1,3-benzoxazol-2-ylhydrazo)methylidene]-1-cyclohexa-2,4-dienone]
1.86 | Cc1nn(-c2nc3ccccc3[nH]2)c(N)c1-c1ccccc1 [MLS000063763]
53.1 | O=[N+]([O-])c1ccccc1C=C[CH+][N-]n1c(-c2ccc(Cl)cc2)n[nH]c1=S [MLS000555506]
14.1 | COc1cc(NC(=S)NC(=O)c2ccco2)ccc1NC(=O)C(C)C [MLS000672338]
1.86 | CC(=O)c1cccc(NC(=S)NC(=O)c2ccc(C)cc2)c1 [MLS000687464]
25.5 | O=c1c2ccccc2[nH]c(=S)n1CCN1CCC(=C(c2ccc(F)cc2)c2ccc(F)cc2)CC1 [SMR000058550]

Structure (SMILES) | EC50 [µM]
CNc1ccc2oc(C[C@H]3O[C@@]4(CC[C@H]3C)O[C@H]([C@H](C)C(=O)c3ccc[nH]3)[C@H](C)C[C@H]4C)nc2c1C(=O)O [MLS001056783] | 15.4

Same assay, conditions: inactive by the depositor's call

EC50 [µM] | Structure (SMILES)
138 | Cc1ccc(Cn2c(SCC(=O)Nc3cc(C)on3)nc3ccccc3c2=O)cc1 [2-[[4-keto-3-(4-methylbenzyl)quinazolin-2-yl]thio]-N-(5-methylisoxazol-3-yl)acetamide]
0.61 | Cc1noc(/C=C/N(C)C)c1S(=O)(=O)N(C)CC(=O)NC1CCCCC1 [MLS000047204]
